Results reported in patent publication US11780830B2, “Triazolone derivatives or salts thereof and pharmaceutical compositions comprising the same” (YUHAN CORPORATION, priority 2018, dated 2023).
Blank lines part the entries; values can stand above or below the molecule they belong to.

Columns and labels:
Format in all cases: biochemical
[1] = molecular target: T1, recombinant human DAO (diamine oxidase) (Homo sapiens, UniProt P19801); assay: Activity on recombinant human DAO, method similar to the VAP-1 assay; conditions: substrate 1 mM putrescine; read-out: Inhibitory Activity (IC50, nM) DAO
T1 construct: purchased R&D systems
T1 sequence (P19801 20-751): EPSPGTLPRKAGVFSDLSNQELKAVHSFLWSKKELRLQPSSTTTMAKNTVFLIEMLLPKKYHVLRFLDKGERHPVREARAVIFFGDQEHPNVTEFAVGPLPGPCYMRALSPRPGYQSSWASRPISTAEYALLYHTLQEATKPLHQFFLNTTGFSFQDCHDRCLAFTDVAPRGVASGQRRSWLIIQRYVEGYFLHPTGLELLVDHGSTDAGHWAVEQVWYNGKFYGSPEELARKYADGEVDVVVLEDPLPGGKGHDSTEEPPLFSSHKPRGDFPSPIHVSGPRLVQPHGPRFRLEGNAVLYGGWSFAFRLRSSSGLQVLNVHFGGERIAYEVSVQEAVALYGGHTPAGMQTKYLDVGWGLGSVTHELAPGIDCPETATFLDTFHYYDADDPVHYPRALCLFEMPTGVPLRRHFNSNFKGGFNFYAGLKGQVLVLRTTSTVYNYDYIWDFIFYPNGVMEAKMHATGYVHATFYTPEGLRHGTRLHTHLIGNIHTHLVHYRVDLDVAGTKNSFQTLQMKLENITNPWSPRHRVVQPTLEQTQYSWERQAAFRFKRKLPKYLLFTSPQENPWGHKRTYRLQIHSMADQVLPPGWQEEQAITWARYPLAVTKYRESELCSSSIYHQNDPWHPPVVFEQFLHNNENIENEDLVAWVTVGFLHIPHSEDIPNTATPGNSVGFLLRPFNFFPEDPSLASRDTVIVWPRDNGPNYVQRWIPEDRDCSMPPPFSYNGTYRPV
Outline: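 Inhibition of recombinant human diamine oxidase (DAO, R&D systems) was assessed by the same approach as the VAP-1 assay, using 1 mM putrescine as substrate. Hydrogen peroxide formed was detected through an HRP-coupled Amplex Red reaction yielding fluorescent resorufin, read at 544 nm excitation and 590 nm emission. IC50 values came from four-parameter logistic fitting in GraphPad Prism.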

[2] = molecular target: T2, recombinant human MAO-A (monoamine oxidase-A) (Homo sapiens, UniProt P21397); assay: Activity on recombinant human MAO-A, method similar to the VAP-1 assay; conditions: substrate 0.5 mM tyramine; read-out: Inhibitory Activity (IC50, nM) MAO-A
T2 construct: purchased Sigma-Aldrich
T2 sequence (P21397 1-527): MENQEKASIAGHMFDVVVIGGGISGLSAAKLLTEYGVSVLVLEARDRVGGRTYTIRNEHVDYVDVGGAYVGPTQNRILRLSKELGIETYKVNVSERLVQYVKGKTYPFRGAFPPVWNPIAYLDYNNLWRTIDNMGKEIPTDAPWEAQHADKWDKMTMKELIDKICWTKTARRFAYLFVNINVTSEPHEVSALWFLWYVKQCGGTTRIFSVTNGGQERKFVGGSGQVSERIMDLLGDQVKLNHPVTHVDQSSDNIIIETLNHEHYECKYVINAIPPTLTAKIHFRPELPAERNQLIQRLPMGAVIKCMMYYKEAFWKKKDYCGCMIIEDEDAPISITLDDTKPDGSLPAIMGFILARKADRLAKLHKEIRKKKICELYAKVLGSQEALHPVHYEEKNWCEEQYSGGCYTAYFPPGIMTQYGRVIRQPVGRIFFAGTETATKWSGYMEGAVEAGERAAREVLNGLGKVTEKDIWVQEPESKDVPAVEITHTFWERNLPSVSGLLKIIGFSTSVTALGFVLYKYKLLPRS
Outline: (§1)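 Amplex Red/HRP coupled read-out of H2O2 with 0.5 mM tyramine for MAO-A or 1 mM benzylamine for MAO-B, following a 30-min compound–enzyme preincubation at 37° C. IC50 from percent inhibition of signal rate relative to uninhibited control.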

[3] = molecular target: T3, recombinant human MAO-B (monoamine oxidase-B) (Homo sapiens, UniProt P27338); assay: Activity on recombinant human MAO-B, method similar to the VAP-1 assay; conditions: substrate 1 mM benzylamine; read-out: Inhibitory Activity (IC50, nM) MAO-B
T3 construct: purchased Sigma-Aldrich
T3 sequence (P27338 1-520): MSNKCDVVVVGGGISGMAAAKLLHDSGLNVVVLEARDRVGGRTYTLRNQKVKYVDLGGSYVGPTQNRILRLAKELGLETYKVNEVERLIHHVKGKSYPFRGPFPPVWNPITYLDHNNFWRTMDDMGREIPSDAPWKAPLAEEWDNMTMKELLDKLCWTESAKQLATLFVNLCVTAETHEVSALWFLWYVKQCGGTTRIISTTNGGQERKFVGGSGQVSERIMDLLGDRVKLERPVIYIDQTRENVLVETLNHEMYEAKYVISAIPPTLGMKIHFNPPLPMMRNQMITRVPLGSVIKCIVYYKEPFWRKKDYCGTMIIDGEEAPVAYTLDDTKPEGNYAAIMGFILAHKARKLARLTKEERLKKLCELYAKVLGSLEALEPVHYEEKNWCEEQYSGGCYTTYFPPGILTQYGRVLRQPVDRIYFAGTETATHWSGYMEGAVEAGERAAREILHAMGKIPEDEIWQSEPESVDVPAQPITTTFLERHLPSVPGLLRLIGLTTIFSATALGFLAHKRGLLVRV
Outline: as §1

recombinant human VAP-1 = molecular target: T4, recombinant human VAP-1 (Homo sapiens, UniProt Q16853); assay: Activity on recombinant human VAP-1, HRP-coupled Amplex Red hydrogen peroxide assay; conditions: substrate 1 mM benzylamine; compound incubated with enzyme at 37° C. for 30 minutes; pH 7.4; read-out: Inhibitory Activity (IC50, nM) human VAP-1
T4 construct: purchased R&D systems
T4 sequence (Q16853 1-763): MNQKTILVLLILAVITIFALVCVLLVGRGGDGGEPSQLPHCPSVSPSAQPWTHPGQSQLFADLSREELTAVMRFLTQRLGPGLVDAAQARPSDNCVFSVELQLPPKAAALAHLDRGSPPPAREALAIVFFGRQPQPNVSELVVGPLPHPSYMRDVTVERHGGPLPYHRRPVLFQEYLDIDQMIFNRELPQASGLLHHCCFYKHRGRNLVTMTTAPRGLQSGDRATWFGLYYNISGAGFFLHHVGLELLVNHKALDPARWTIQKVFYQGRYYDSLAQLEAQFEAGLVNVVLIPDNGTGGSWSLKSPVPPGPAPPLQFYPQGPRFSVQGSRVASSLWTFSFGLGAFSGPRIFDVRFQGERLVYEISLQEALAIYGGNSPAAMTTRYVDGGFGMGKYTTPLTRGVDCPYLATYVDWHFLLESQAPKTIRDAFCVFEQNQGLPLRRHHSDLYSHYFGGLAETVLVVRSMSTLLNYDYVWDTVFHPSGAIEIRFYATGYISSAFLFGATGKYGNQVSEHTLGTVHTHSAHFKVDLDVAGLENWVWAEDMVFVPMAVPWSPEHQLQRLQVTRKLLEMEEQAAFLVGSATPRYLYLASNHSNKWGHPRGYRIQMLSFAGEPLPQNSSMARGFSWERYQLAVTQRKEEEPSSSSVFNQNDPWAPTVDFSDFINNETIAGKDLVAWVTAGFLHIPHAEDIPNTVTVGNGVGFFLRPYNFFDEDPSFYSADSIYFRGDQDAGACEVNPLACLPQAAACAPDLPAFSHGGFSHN
Outline: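 Dose-response IC50 determined from reduction in resorufin signal rate (544/590 nm, 1-2 h), with 30 min compound preincubation at 37 °C and 1 mM benzylamine as substrate.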

SMILES: CC(C)n1nccc1-c1ccc(Cn2cnn(C/C(=C/F)CN)c2=O)s1 [Example 161, 2-[(2E)-2-(aminomethyl)-3-fluoroprop-2-en-1-yl]-4-({5-[1-(propan-2-yl)-1H-pyrazol-5-yl]thiophen-2-yl}methyl)-2,4-dihydro-3H-1,2,4-triazol-3-one]
IC50 [1]: 4300 nM
IC50 [2]: > 100000 nM
IC50 [3]: 15 nM
IC50 (recombinant human VAP-1): 3.7 nM

SMILES: Cn1nc(C(F)(F)F)cc1-c1ccc(Cn2cnn(C/C(=C/F)CN)c2=O)s1 [Example 162, 2-[(2E)-2-(aminomethyl)-3-fluoroprop-2-en-1-yl]-4-({5-[1-methyl-3-(trifluoromethyl)-1H-pyrazol-5-yl]thiophen-2-yl}methyl)-2,4-dihydro-3H-1,2,4-triazol-3-one]
IC50 [1]: 250 nM
IC50 [2]: > 100000 nM
IC50 [3]: 250 nM
IC50 (recombinant human VAP-1): 3.2 nM

SMILES: NC/C(=C\F)Cn1ncn(Cc2ccc(C3=CCNCC3)s2)c1=O [Example 163, 2-[(2E)-2-(aminomethyl)-3-fluoroprop-2-en-1-yl]-4-{[5-(1,2,3,6-tetrahydropyridin-4-yl)thiophen-2-yl]methyl}-2,4-dihydro-3H-1,2,4-triazol-3-one]
IC50 [1]: 300 nM
IC50 [2]: > 100000 nM
IC50 [3]: 5500 nM
IC50 (recombinant human VAP-1): 2.1 nM

SMILES: NC/C(=C\F)Cn1ncn(Cc2ccc(-c3cnc(N)nc3)s2)c1=O [Example 167, 2-[(2E)-2-(aminomethyl)-3-fluoroprop-2-en-1-yl]-4-{[5-(2-aminopyrimidin-5-yl)thiophen-2-yl]methyl}-2,4-dihydro-3H-1,2,4-triazol-3-one]
IC50 [1]: 1800 nM
IC50 [2]: > 100000 nM
IC50 [3]: > 10000 nM
IC50 (recombinant human VAP-1): 2.4 nM

SMILES: NC/C(=C\F)Cn1ncn(Cc2ccc(Cc3ccc(OC(F)(F)F)cc3)s2)c1=O [Example 168, 2-[(2E)-2-(aminomethyl)-3-fluoroprop-2-en-1-yl]-4-({5-[4-(trifluoromethoxy)benzyl]thiophen-2-yl}methyl)-2,4-dihydro-3H-1,2,4-triazol-3-one]
IC50 [1]: 4500 nM
IC50 [2]: > 100000 nM
IC50 [3]: 340 nM
IC50 (recombinant human VAP-1): 12 nM

Next, values leading:

IC50 [1]: 1100 nM
IC50 [2]: > 100000 nM
IC50 [3]: 51 nM
IC50 (recombinant human VAP-1): 2.2 nM
SMILES: NC/C(=C\F)Cn1ncn(Cc2ccc(-c3ccncc3)s2)c1=O [Example 160, 2-[(2E)-2-(aminomethyl)-3-fluoroprop-2-en-1-yl]-4-{[5-(pyridin-4-yl)thiophen-2-yl]methyl}-2,4-dihydro-3H-1,2,4-triazol-3-one]

IC50 [1]: 6800 nM
IC50 [2]: > 100000 nM
IC50 [3]: 170 nM
IC50 (recombinant human VAP-1): 2.5 nM
SMILES: NC/C(=C\F)Cn1ncn(Cc2ccc(-c3csc(CO)c3)s2)c1=O [Example 164, 2-[(2E)-2-(aminomethyl)-3-fluoroprop-2-en-1-yl]-4-{[5′-(hydroxymethyl)-2,3′-bithiophen-5-yl]methyl}-2,4-dihydro-3H-1,2,4-triazol-3-one]

IC50 [1]: 5300 nM
IC50 [2]: > 100000 nM
IC50 [3]: 2.8 nM
IC50 (recombinant human VAP-1): 7.5 nM
SMILES: Cc1cscc1-c1ccc(Cn2cnn(C/C(=C/F)CN)c2=O)s1 [Example 165, 2-[(2E)-2-(aminomethyl)-3-fluoroprop-2-en-1-yl]-4-[(4′-methyl-2,3′-bithiophen-5-yl)methyl]-2,4-dihydro-3H-1,2,4-triazol-3-one]

IC50 [1]: 14000 nM
IC50 [2]: > 100000 nM
IC50 [3]: 1300 nM
IC50 (recombinant human VAP-1): 7.7 nM
SMILES: NC/C(=C\F)Cn1ncn(Cc2ccc(-c3ccc(N)cc3)s2)c1=O [Example 166, 2-[(2E)-2-(aminomethyl)-3-fluoroprop-2-en-1-yl]-4-{[5-(4-aminophenyl)thiophen-2-yl]methyl}-2,4-dihydro-3H-1,2,4-triazol-3-one]

IC50 [1]: 12000 nM
IC50 [2]: > 100000 nM
IC50 [3]: 930 nM
IC50 (recombinant human VAP-1): 3.3 nM
SMILES: NC/C(=C\F)Cn1ncn(Cc2ccc(-c3ccc(CO)cc3)s2)c1=O [Example 169, 2-[(2E)-2-(aminomethyl)-3-fluoroprop-2-en-1-yl]-4-({5-[4-(hydroxymethyl)phenyl]thiophen-2-yl}methyl)-2,4-dihydro-3H-1,2,4-triazol-3-one]

IC50 [1]: 3100 nM
IC50 [2]: > 100000 nM
IC50 [3]: 190 nM
IC50 (recombinant human VAP-1): 3 nM
SMILES: NC/C(=C\F)Cn1ncn(Cc2ccc(-c3ccc(OC(F)F)cc3)s2)c1=O [Example 170, 2-[(2E)-2-(aminomethyl)-3-fluoroprop-2-en-1-yl]-4-({5-[4-(difluoromethoxy)phenyl]thiophen-2-yl}methyl)-2,4-dihydro-3H-1,2,4-triazol-3-one]

IC50 [1]: 16000 nM
IC50 [2]: > 100000 nM
IC50 [3]: 740 nM
IC50 (recombinant human VAP-1): 2.4 nM
SMILES: NC/C(=C\F)Cn1ncn(Cc2ccc(-c3ccc(CCO)cc3)s2)c1=O [Example 171, 2-[(2E)-2-(aminomethyl)-3-fluoroprop-2-en-1-yl]-4-({5-[4-(2-hydroxyethyl)phenyl]thiophen-2-yl}methyl)-2,4-dihydro-3H-1,2,4-triazol-3-one]
